Experiment [1] addresses T1, PA63 heptamer (Bacillus anthracis, UniProt P13423).
The target of experiment [2] is T1, PA63 heptamer. As to the kind of experiment: biochemical. Type of experiment: binding.

“Also recorded” adds a separate entry of the source. Ends that are not written are not given here.

T1 sequence (P13423 197-764 limits assumed): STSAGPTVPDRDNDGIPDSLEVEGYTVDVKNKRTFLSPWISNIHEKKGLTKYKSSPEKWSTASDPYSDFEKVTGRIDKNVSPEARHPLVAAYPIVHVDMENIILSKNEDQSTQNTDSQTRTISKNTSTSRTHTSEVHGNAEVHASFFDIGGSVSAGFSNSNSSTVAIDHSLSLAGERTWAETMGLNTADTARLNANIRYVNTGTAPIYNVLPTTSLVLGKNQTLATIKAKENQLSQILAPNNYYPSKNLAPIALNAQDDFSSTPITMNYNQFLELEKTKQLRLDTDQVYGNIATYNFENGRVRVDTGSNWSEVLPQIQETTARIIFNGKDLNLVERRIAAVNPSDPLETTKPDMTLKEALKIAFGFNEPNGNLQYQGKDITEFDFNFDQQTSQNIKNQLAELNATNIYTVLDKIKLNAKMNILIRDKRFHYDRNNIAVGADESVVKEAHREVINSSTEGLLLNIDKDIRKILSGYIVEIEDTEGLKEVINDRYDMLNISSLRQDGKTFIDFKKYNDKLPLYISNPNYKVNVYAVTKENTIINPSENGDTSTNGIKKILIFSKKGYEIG

As to CWSSFAWYC, at PA63 heptamer [1], the “properties of phage compared with P1 and P2” value is “showed the same properties as P1 and P2”.

In the case of FDLPFTMSTPTP [reference compound], the “effect on binding of radiolabeled LFN to PA63 on CHO cells” value on PA63 heptamer [2] is recorded as “no effect”.

For the substance HTSTYWWLD, at PA63 heptamer [2], the “effect on binding of radiolabeled LFN to PA63 on CHO cells” value is reported as “all but one, HTSTYWWLD, could prevent; also recorded: could not compete”.

In the case of HTSTYWWLDGAP, the IC50 (in general, the midpoint of a concentration-inhibition curve) against PA63 heptamer [2] is roughly 150 µM.

Regarding HYTYWWL, on PA63 heptamer [1], the “properties of phage compared with P1 and P2” value was “showed the same properties as P1 and P2”.

Values taken from US20030108556A1 (priority 2001, published 2003).
